Experimental data published in patent US10167262B2, “Herbicidal substituted 3-arylpyrazoles” (FMC CORPORATION, priority 2014, dated 2019).

How the values were obtained:
Experiment in all cases: Test C postemergence greenhouse test, plant response rating 0-100
Format in all cases: in vivo
[1] = tested on: bermudagrass (Cynodon dactylon); conditions: for Plant response rating, Bermudagrass: scale 0 to 100
How it was run: (§1)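 Plants rated visually 0 (no effect) to 100 (complete control) against untreated controls after 13 to 15 days in the greenhouse, dash indicating no result. Treatment was a postemergence application of formulated chemicals at the 1- to 4-leaf stage (2 to 18 cm), in pots of peat-vermiculite medium.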

[2] = tested on: canarygrass (Phalaris minor); conditions: for Plant response rating, Canarygrass: scale 0 to 100
How it was run: as §1

[3] = tested on: cocklebur (common cocklebur, Xanthium strumarium); conditions: for Plant response rating, Cocklebur: scale 0 to 100
How it was run: as §1

[4] = tested on: deadnettle (henbit deadnettle, Lamium amplexicaule); conditions: for Plant response rating, Deadnettle: scale 0 to 100
How it was run: as §1

[5] = tested on: downy bromegrass (Bromus tectorum); conditions: for Plant response rating, Bromegrass, Downy: scale 0 to 100
How it was run: as §1

[6] = tested on: goosegrass (Eleusine indica); conditions: for Plant response rating, Goosegrass: scale 0 to 100
How it was run: as §1

[7] = tested on: green foxtail (Setaria viridis); conditions: for Plant response rating, Foxtail, Green: scale 0 to 100
How it was run: as §1

[8] = tested on: surinam grass (Brachiaria decumbens); conditions: for Plant response rating, Surinam Grass: scale 0 to 100
How it was run: as §1

[9] = tested on: windgrass (Apera spica-venti); conditions: for Plant response rating, Windgrass: scale 0 to 100
How it was run: as §1

[10] = tested on: winter barley (Hordeum vulgare); conditions: for Plant response rating, Barley: scale 0 to 100
How it was run: as §1

[11] = tested on: woolly cupgrass (Eriochloa villosa); conditions: for Plant response rating, Cupgrass, Woolly: scale 0 to 100
How it was run: as §1

Cn1cc(C(=O)c2ccccc2)c(-c2cc(Br)cc(Br)c2)n1 [Compound 53]
Plant response rating (0 to 100), Bermudagrass ([1]; 62 g ai/ha): 5 | Plant response rating (0 to 100), Bermudagrass ([1]; 125 g ai/ha): 5 | Plant response rating, Bermudagrass ([1]; 250 g ai/ha): 5 | Plant response rating, Bermudagrass ([1]; 500 g ai/ha): 5 | Plant response rating (0 to 100), Canarygrass ([2]; 62 g ai/ha): 0 | Plant response rating (0 to 100), Canarygrass ([2]; 125 g ai/ha): 0 | Plant response rating, Canarygrass ([2]; 250 g ai/ha): 0 | Plant response rating, Canarygrass ([2]; 500 g ai/ha): 0 | Plant response rating (0 to 100), Cocklebur ([3]; 62 g ai/ha): 5 | Plant response rating (0 to 100), Cocklebur ([3]; 125 g ai/ha): 10 | Plant response rating, Cocklebur ([3]; 250 g ai/ha): 10 | Plant response rating, Cocklebur ([3]; 500 g ai/ha): 15 | Plant response rating (0 to 100), Deadnettle ([4]; 62 g ai/ha): 0 | Plant response rating (0 to 100), Deadnettle ([4]; 125 g ai/ha): 0 | Plant response rating, Deadnettle ([4]; 250 g ai/ha): 0 | Plant response rating, Deadnettle ([4]; 500 g ai/ha): 0 | Plant response rating (0 to 100), Bromegrass, Downy ([5]; 62 g ai/ha): 0 | Plant response rating (0 to 100), Bromegrass, Downy ([5]; 125 g ai/ha): 0 | Plant response rating, Bromegrass, Downy ([5]; 250 g ai/ha): 0 | Plant response rating, Bromegrass, Downy ([5]; 500 g ai/ha): 0 | Plant response rating (0 to 100), Goosegrass ([6]; 62 g ai/ha): 5 | Plant response rating (0 to 100), Goosegrass ([6]; 125 g ai/ha): 5 | Plant response rating, Goosegrass ([6]; 250 g ai/ha): 5 | Plant response rating, Goosegrass ([6]; 500 g ai/ha): 5 | Plant response rating (0 to 100), Foxtail, Green ([7]; 62 g ai/ha): 0 | Plant response rating (0 to 100), Foxtail, Green ([7]; 125 g ai/ha): 0 | Plant response rating, Foxtail, Green ([7]; 250 g ai/ha): 0 | Plant response rating, Foxtail, Green ([7]; 500 g ai/ha): 0 | Plant response rating (0 to 100), Surinam Grass ([8]; 62 g ai/ha): 0 | Plant response rating (0 to 100), Surinam Grass ([8]; 125 g ai/ha): 0 | Plant response rating, Surinam Grass ([8]; 250 g ai/ha): 0 | Plant response rating, Surinam Grass ([8]; 500 g ai/ha): 0 | Plant response rating (0 to 100), Windgrass ([9]; 62 g ai/ha): 0 | Plant response rating (0 to 100), Windgrass ([9]; 125 g ai/ha): 0 | Plant response rating, Windgrass ([9]; 250 g ai/ha): 0 | Plant response rating, Windgrass ([9]; 500 g ai/ha): 0 | Plant response rating (0 to 100), Barley ([10]; 62 g ai/ha): 0 | Plant response rating (0 to 100), Barley ([10]; 125 g ai/ha): 0 | Plant response rating, Barley ([10]; 250 g ai/ha): 0 | Plant response rating, Barley ([10]; 500 g ai/ha): 0 | Plant response rating (0 to 100), Cupgrass, Woolly ([11]; 62 g ai/ha): 5 | Plant response rating (0 to 100), Cupgrass, Woolly ([11]; 125 g ai/ha): 5 | Plant response rating, Cupgrass, Woolly ([11]; 250 g ai/ha): 5 | Plant response rating, Cupgrass, Woolly ([11]; 500 g ai/ha): 5

Fc1ccccc1NN=C(c1ccccc1)c1c[nH]nc1-c1cc(Cl)cc(Cl)c1 [Compound 57]
Plant response rating (0 to 100), Bermudagrass ([1]; 31 g ai/ha): 0 | Plant response rating (0 to 100), Bermudagrass ([1]; 62 g ai/ha): 0 | Plant response rating (0 to 100), Bermudagrass ([1]; 125 g ai/ha): 0 | Plant response rating, Bermudagrass ([1]; 250 g ai/ha): 5 | Plant response rating (0 to 100), Canarygrass ([2]; 31 g ai/ha): 0 | Plant response rating (0 to 100), Canarygrass ([2]; 62 g ai/ha): 0 | Plant response rating (0 to 100), Canarygrass ([2]; 125 g ai/ha): 0 | Plant response rating, Canarygrass ([2]; 250 g ai/ha): 0 | Plant response rating (0 to 100), Cocklebur ([3]; 31 g ai/ha): 10 | Plant response rating (0 to 100), Cocklebur ([3]; 62 g ai/ha): 70 | Plant response rating (0 to 100), Cocklebur ([3]; 125 g ai/ha): 70 | Plant response rating, Cocklebur ([3]; 250 g ai/ha): 70 | Plant response rating (0 to 100), Deadnettle ([4]; 31 g ai/ha): 0 | Plant response rating (0 to 100), Deadnettle ([4]; 62 g ai/ha): 0 | Plant response rating (0 to 100), Deadnettle ([4]; 125 g ai/ha): 0 | Plant response rating, Deadnettle ([4]; 250 g ai/ha): 0 | Plant response rating (0 to 100), Bromegrass, Downy ([5]; 31 g ai/ha): 0 | Plant response rating (0 to 100), Bromegrass, Downy ([5]; 62 g ai/ha): 0 | Plant response rating (0 to 100), Bromegrass, Downy ([5]; 125 g ai/ha): 0 | Plant response rating, Bromegrass, Downy ([5]; 250 g ai/ha): 0 | Plant response rating (0 to 100), Goosegrass ([6]; 31 g ai/ha): 0 | Plant response rating (0 to 100), Goosegrass ([6]; 62 g ai/ha): 0 | Plant response rating (0 to 100), Goosegrass ([6]; 125 g ai/ha): 0 | Plant response rating, Goosegrass ([6]; 250 g ai/ha): 0 | Plant response rating (0 to 100), Foxtail, Green ([7]; 31 g ai/ha): 0 | Plant response rating (0 to 100), Foxtail, Green ([7]; 62 g ai/ha): 0 | Plant response rating (0 to 100), Foxtail, Green ([7]; 125 g ai/ha): 0 | Plant response rating, Foxtail, Green ([7]; 250 g ai/ha): 0 | Plant response rating (0 to 100), Surinam Grass ([8]; 62 g ai/ha): 0 | Plant response rating (0 to 100), Surinam Grass ([8]; 125 g ai/ha): 0 | Plant response rating, Surinam Grass ([8]; 250 g ai/ha): 0 | Plant response rating (0 to 100), Windgrass ([9]; 62 g ai/ha): 0 | Plant response rating (0 to 100), Windgrass ([9]; 125 g ai/ha): 0 | Plant response rating, Windgrass ([9]; 250 g ai/ha): 0 | Plant response rating (0 to 100), Barley ([10]; 31 g ai/ha): 0 | Plant response rating (0 to 100), Barley ([10]; 62 g ai/ha): 0 | Plant response rating (0 to 100), Barley ([10]; 125 g ai/ha): 0 | Plant response rating, Barley ([10]; 250 g ai/ha): 0 | Plant response rating (0 to 100), Cupgrass, Woolly ([11]; 31 g ai/ha): 0 | Plant response rating (0 to 100), Cupgrass, Woolly ([11]; 62 g ai/ha): 0 | Plant response rating (0 to 100), Cupgrass, Woolly ([11]; 125 g ai/ha): 5 | Plant response rating, Cupgrass, Woolly ([11]; 250 g ai/ha): 5

Fc1cccc(NN=C(c2ccccc2)c2c[nH]nc2-c2cc(Cl)cc(Cl)c2)c1 [Compound 58]
Plant response rating (0 to 100), Bermudagrass ([1]; 62 g ai/ha): 0 | Plant response rating (0 to 100), Bermudagrass ([1]; 125 g ai/ha): 0 | Plant response rating, Bermudagrass ([1]; 250 g ai/ha): 0 | Plant response rating, Bermudagrass ([1]; 500 g ai/ha): 10 | Plant response rating (0 to 100), Canarygrass ([2]; 62 g ai/ha): 0 | Plant response rating (0 to 100), Canarygrass ([2]; 125 g ai/ha): 0 | Plant response rating, Canarygrass ([2]; 250 g ai/ha): 0 | Plant response rating, Canarygrass ([2]; 500 g ai/ha): 0 | Plant response rating (0 to 100), Cocklebur ([3]; 62 g ai/ha): 60 | Plant response rating (0 to 100), Cocklebur ([3]; 125 g ai/ha): 75 | Plant response rating, Cocklebur ([3]; 250 g ai/ha): 80 | Plant response rating, Cocklebur ([3]; 500 g ai/ha): 95 | Plant response rating (0 to 100), Deadnettle ([4]; 62 g ai/ha): 0 | Plant response rating (0 to 100), Deadnettle ([4]; 125 g ai/ha): 0 | Plant response rating, Deadnettle ([4]; 250 g ai/ha): 0 | Plant response rating, Deadnettle ([4]; 500 g ai/ha): 0 | Plant response rating (0 to 100), Bromegrass, Downy ([5]; 62 g ai/ha): 0 | Plant response rating (0 to 100), Bromegrass, Downy ([5]; 125 g ai/ha): 0 | Plant response rating, Bromegrass, Downy ([5]; 250 g ai/ha): 0 | Plant response rating, Bromegrass, Downy ([5]; 500 g ai/ha): 0 | Plant response rating (0 to 100), Goosegrass ([6]; 62 g ai/ha): 0 | Plant response rating (0 to 100), Goosegrass ([6]; 125 g ai/ha): 0 | Plant response rating, Goosegrass ([6]; 250 g ai/ha): 0 | Plant response rating, Goosegrass ([6]; 500 g ai/ha): 5 | Plant response rating (0 to 100), Foxtail, Green ([7]; 62 g ai/ha): 0 | Plant response rating (0 to 100), Foxtail, Green ([7]; 125 g ai/ha): 0 | Plant response rating, Foxtail, Green ([7]; 250 g ai/ha): 0 | Plant response rating, Foxtail, Green ([7]; 500 g ai/ha): 30 | Plant response rating (0 to 100), Surinam Grass ([8]; 62 g ai/ha): 0 | Plant response rating (0 to 100), Surinam Grass ([8]; 125 g ai/ha): 0 | Plant response rating, Surinam Grass ([8]; 250 g ai/ha): 0 | Plant response rating, Surinam Grass ([8]; 500 g ai/ha): 0 | Plant response rating (0 to 100), Windgrass ([9]; 62 g ai/ha): 0 | Plant response rating (0 to 100), Windgrass ([9]; 125 g ai/ha): 0 | Plant response rating, Windgrass ([9]; 250 g ai/ha): 0 | Plant response rating, Windgrass ([9]; 500 g ai/ha): 0 | Plant response rating (0 to 100), Barley ([10]; 62 g ai/ha): 0 | Plant response rating (0 to 100), Barley ([10]; 125 g ai/ha): 0 | Plant response rating, Barley ([10]; 250 g ai/ha): 0 | Plant response rating, Barley ([10]; 500 g ai/ha): 0 | Plant response rating (0 to 100), Cupgrass, Woolly ([11]; 62 g ai/ha): 0 | Plant response rating (0 to 100), Cupgrass, Woolly ([11]; 125 g ai/ha): 0 | Plant response rating, Cupgrass, Woolly ([11]; 250 g ai/ha): 0 | Plant response rating, Cupgrass, Woolly ([11]; 500 g ai/ha): 0
